Test results from article PMC9116245, “New 1,2,3-triazole linked ciprofloxacin-chalcones induce DNA damage by inhibiting human topoisomerase I& II and tubulin polymerization” (Journal of Enzyme Inhibition and Medicinal Chemistry, 2022).

Tests used:
γH2AX [1] = test: γH2AX immunofluorescence in HCT116 cells; type: cell-based, human; details: HCT116, IC50 of compound
Excerpt: (§1) DNA damage is a major reason for inhibiting proliferation and inducing cytotoxicity in cancer cells as well as the main downstream cascade for the Topo-I, Top-II, and tubulin polymerisation inhibition. The phosphorylation of the histone H2AX always occurs after DNA damage forming double-stranded breaks (DSBs). Therefore, we tested the capability of the potent prepared compounds to trigger DNA double strand breaks through detection of the phosphorylation of γH2AX using two different techniques, Immunofluorescence, and western blotting.
(§2) HCT116 cells were cultured and treated with the IC50 of the potent compounds (4a, 4b, 4e, 4i, and 4j) or DMSO (control), fixed, permeabilized, and they were incubated with either γH2AX or α-tubulin antibody as the reported procedure in the literature. Confocal images were captured using a Confocal Microscope with a 63X objective. All images were processed using ImageJ software. See Supplementary Appendix A.

HCT116 cells = test: Analysis of cell cycle distribution; type: cell-based, human; details: HCT116, different concentrations, 24 h
Excerpt: Generally, the mammalian cells counteract the DNA damage by different mechanisms including the cell cycle arrest to allow the cell to repair the damage. There are 2 checkpoints that control DNA damage. The first checkpoint is at the G1/S transition while the other checkpoint is at the G2/M transition. To cover the mechanisms of the synthesised compounds in inhibiting cell proliferation, we analysed the distribution of cell cycle of HCT116 cells following the treatment with different doses of 4a, 4b, 4e, 4i, and 4j. […] See Supplementary Appendix A.

[2] = molecular target: T1, recombinant human DNA topoisomerase I (Homo sapiens, UniProt P11387); test: Human DNA Topoisomerase I Assay Kit (ProFoldin); type: biochemical; details: compounds at their IC50 values, reference camptothecin
T1 construct: purchased Sigma-Aldrich
T1 sequence (P11387 1-765): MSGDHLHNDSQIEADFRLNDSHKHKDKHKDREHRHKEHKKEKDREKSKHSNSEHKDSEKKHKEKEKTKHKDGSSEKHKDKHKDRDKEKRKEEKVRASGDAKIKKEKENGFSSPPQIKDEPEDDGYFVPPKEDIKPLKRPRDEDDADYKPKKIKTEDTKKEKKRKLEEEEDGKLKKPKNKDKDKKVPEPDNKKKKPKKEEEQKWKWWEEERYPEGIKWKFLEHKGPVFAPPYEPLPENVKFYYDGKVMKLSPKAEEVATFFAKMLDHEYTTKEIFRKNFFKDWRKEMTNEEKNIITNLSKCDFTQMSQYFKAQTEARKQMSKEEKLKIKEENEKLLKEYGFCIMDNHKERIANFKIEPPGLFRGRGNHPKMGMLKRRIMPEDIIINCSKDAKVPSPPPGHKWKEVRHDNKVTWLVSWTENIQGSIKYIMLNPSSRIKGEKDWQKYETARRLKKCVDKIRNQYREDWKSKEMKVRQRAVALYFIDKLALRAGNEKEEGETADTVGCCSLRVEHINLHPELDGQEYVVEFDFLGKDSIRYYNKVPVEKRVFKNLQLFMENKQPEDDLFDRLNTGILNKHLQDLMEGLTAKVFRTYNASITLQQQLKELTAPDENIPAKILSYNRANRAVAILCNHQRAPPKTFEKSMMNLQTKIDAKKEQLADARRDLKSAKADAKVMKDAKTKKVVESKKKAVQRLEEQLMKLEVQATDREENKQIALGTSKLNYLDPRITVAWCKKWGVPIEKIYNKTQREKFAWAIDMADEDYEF

γH2AX [3] = test: γH2AX western blotting in HCT116 cells; type: cell-based, human; details: HCT116, IC50 of compound, versus control cells
Excerpt: as §1
Western blotting analysis for HCT116 cells was performed according to the reported procedure in the literature[77–79] to determine the effects of CP hybrids; 4a, 4b, 4e, 4i, and 4j on the expression of polymerised tubulin, γH2AX, p-ATR, p-CHK1, and p-Cdc25C by using the appropriate antibody. See Supplementary Appendix A.

Topo IIα = molecular target: T2, Topo IIα (Homo sapiens, UniProt P11388); test: Human Topoisomerase II assay kit (TG1001); type: biochemical; details: 10 µM
T2 construct: purchased Topogen Inc. TG1001
T2 sequence (P11388 whole entry): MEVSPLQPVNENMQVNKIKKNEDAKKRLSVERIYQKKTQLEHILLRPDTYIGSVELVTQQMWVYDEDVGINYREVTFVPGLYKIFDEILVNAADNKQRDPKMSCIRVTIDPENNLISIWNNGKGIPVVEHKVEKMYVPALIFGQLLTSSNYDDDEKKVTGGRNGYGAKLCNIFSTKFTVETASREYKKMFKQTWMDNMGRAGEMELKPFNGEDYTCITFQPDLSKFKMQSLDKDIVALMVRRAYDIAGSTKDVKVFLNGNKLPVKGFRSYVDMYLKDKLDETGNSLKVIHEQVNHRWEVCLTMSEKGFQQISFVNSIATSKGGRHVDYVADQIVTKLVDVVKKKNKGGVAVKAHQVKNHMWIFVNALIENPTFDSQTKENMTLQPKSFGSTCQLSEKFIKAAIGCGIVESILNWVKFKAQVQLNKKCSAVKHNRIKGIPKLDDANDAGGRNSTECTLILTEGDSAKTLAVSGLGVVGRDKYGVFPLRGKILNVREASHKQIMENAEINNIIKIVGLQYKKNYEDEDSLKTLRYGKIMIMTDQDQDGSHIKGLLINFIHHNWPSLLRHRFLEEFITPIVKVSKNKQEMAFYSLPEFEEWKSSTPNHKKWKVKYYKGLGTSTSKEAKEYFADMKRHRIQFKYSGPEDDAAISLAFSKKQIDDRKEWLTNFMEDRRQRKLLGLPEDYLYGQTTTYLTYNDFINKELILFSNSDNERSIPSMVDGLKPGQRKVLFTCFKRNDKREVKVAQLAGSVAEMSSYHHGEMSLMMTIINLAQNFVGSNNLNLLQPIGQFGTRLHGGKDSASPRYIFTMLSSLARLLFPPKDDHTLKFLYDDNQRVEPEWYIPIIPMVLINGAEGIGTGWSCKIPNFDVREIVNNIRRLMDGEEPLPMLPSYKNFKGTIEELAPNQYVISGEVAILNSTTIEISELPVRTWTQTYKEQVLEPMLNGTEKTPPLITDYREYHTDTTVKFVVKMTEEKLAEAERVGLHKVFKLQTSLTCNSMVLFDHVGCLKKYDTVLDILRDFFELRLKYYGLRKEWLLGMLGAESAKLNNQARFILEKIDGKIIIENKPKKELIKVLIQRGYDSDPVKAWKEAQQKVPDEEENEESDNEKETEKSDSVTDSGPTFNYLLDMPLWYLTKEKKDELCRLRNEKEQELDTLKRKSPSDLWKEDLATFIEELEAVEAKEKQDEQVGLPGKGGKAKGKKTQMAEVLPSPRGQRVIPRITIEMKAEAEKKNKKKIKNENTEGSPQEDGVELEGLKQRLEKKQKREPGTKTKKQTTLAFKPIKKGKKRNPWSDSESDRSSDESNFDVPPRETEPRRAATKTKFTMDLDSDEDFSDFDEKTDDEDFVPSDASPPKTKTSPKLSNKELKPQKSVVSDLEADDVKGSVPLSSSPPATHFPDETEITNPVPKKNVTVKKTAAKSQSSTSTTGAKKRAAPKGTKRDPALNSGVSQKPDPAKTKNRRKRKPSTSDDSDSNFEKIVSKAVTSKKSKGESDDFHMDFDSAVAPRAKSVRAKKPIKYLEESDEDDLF
Method: Second, the inhibitory activity of Topo IIα was evaluated for compounds 4a, 4b, 4e, 4i, and 4j utilising Human Topoisomerase II assay kit (TG1001, Topogen Inc.). […] The above results are compatible with our design of these hybrids as Top-II inhibitors.
The inhibitory activity of the selected ciprofloxacin hybrids on human Top-II was tested using a Human Topoisomerase II assay kit (TG1001, Topogen Inc.). In this assay, 1% agarose gel was used, and the compounds were tested at two different concentrations, 10 and 100 µM. Also, etoposide was used as a positive control in this experiment. The assay was performed according to the manufacturer’s protocol. The image of the electrophoretic gel was captured using an imaging system (iBright-CL1500, Thermo Fisher Scientific).

tubulin polymerisation = test: Tubulin immunofluorescence microscopy in HCT116 cells; type: cell-based, human; details: HCT116, IC50 of compound, 36 h
Method: The process of tubulin polymerisation in the cells is important for the completion of mitosis and is targeted for cancer treatment. It has been reported that the suppression of tubulin polymerisation will arrest the cells at the G2/M and it eventually leads to cell death. To test the tubulin-disruptive effect of the CP hybrids, HCT116 cells were analysed by immunocytochemistry. HCT116 cells were incubated for 36 h with IC50 of the CP hybrids (4a, 4b, 4e, 4i, and 4j), nocodazole (a well-known tubulin polymerisation inhibitor, as a positive control), DMSO or Paclitaxel (a well-known tubulin polymerisation inducer, as a negative control), and tubulin was visualised by immunofluorescence microscopy. An antibody for α-tubulin was used. […] Moreover, a Western blot was performed to verify the tubulin polymerisation inhibition ability of the synthesised compounds (Figure 8(B)). The level of polymerised tubulin was decreased in HCT116 cells treated with IC50 values of CP hybrids 4a, 4b, 4e, 4i, 4j, or nocodazole.
as §2

| SMILES | γH2AX foci formation (γH2AX [1]) | cell cycle distribution (HCT116 cells) | Top-I inhibitory activity, enzyme assay kit [2] | γH2AX protein expression, western blotting (γH2AX [3]) | Topo-II inhibitory activity (Topo IIα) | tubulin polymerisation, morphological changes by immunofluorescence (tubulin polymerisation) | melting point |
| --- | --- | --- | --- | --- | --- | --- | --- |
| O=C(/C=C/c1ccc(F)cc1)c1ccc(-n2cc(CN3CCN(c4cc5c(cc4F)c(=O)c(C(=O)O)cn5C4CC4)CC3)nn2)cc1 [Compound 4e, (E)-1-cyclopropyl-6-fluoro-7–(4-((1–(4-(3-(4-fluorophenyl)acryloyl)phenyl)-1H-1,2,3-triazol-4-yl)methyl)piperazin-1-yl)-4-oxo-1,4-dihydroquinoline-3-carboxylic acid] | induced γH2AX foci formation | induced G2/M phase cell cycle arrest in a concentration-dependent manner | comparable to camptothecin | increases in the γH2AX protein expression | stronger inhibitory activity than 4b, 4i, and ETO | significant tubulin polymerisation inhibition | – |
| O=C(/C=C/c1ccccc1)c1ccc(-n2cc(CN3CCN(c4cc5c(cc4F)c(=O)c(C(=O)O)cn5C4CC4)CC3)nn2)cc1 [Compound 4a, (E) 7-(4-((1–(4-Cinnamoylphenyl)-1H-1,2,3-triazol-4-yl)methyl)piperazin-1-yl)-1-cyclopropyl-6-fluoro-4-oxo-1,4-dihydroquinoline-3-carboxylic acid] | induced γH2AX foci formation | induced G2/M phase cell cycle arrest in a concentration-dependent manner | highest Top-I inhibitory activity | increases in the γH2AX protein expression | stronger inhibitory activity than 4b, 4i, and ETO | significant tubulin polymerisation inhibition | – |
| COc1ccc(/C=C/C(=O)c2ccc(-n3cc(CN4CCN(c5cc6c(cc5F)c(=O)c(C(=O)O)cn6C5CC5)CC4)nn3)cc2)cc1OC [Compound 4i, (E)-1-cyclopropyl-7-(4-((1-(4-(3–(3,4-dimethoxyphenyl)acryloyl)phenyl)-1H-1,2,3-triazol-4-yl)methyl)piperazin-1-yl)-6-fluoro-4-oxo-1,4-dihydroquinoline-3-carboxylic acid] | induced γH2AX foci formation | induced G2/M phase cell cycle arrest in a concentration-dependent manner | – | increases in the γH2AX protein expression | – | significant tubulin polymerisation inhibition | – |
| COc1ccc(/C=C/C(=O)c2ccc(-n3cc(CN4CCN(c5cc6c(cc5F)c(=O)c(C(=O)O)cn6C5CC5)CC4)nn3)cc2)cc1 [Compound 4g, (E)-1-Cyclopropyl-6-fluoro-7-(4-((1-(4-(3-(4-methoxyphenyl)acryloyl)phenyl)-1H-1,2,3-triazol-4-yl)methyl)piperazin-1-yl)-4-oxo-1,4-dihydroquinoline-3-carboxylic acid] | – | – | – | – | – | – | 254 to 257 °C |
| O=C(/C=C/c1ccc(Br)cc1)c1ccc(-n2cc(CN3CCN(c4cc5c(cc4F)c(=O)c(C(=O)O)cn5C4CC4)CC3)nn2)cc1 [Compound 4d, (E)-7-(4-((1-(4-(3-(4-bromophenyl)acryloyl)phenyl)-1H-1,2,3-triazol-4-yl)methyl)piperazin-1-yl)-1-cyclopropyl-6-fluoro-4-oxo-1,4-dihydroquinoline-3-carboxylic acid] | – | – | – | – | – | – | 247 to 249 °C |
| Cc1ccc(/C=C/C(=O)c2ccc(-n3cc(CN4CCN(c5cc6c(cc5F)c(=O)c(C(=O)O)cn6C5CC5)CC4)nn3)cc2)cc1 [Compound 4f, (E)-1-cyclopropyl-6-fluoro-4-oxo-7-(4-((1-(4-(3-(p-tolyl)acryloyl)phenyl)-1H-1,2,3-triazol-4-yl)methyl)piperazin-1-yl)-1,4-dihydroquinoline-3-carboxylic acid] | – | – | – | – | – | – | 259 to 261 °C |
| CN(C)c1ccc(/C=C/C(=O)c2ccc(-n3cc(CN4CCN(c5cc6c(cc5F)c(=O)c(C(=O)O)cn6C5CC5)CC4)nn3)cc2)cc1 [Compound 4h, (E)-1-cyclopropyl-7–(4-((1–(4-(3-(4-(dimethylamino)phenyl)acryloyl)phenyl)-1H-1,2,3-triazol-4-yl)methyl)piperazin-1-yl)-6-fluoro-4-oxo-1,4-dihydroquinoline-3-carboxylic acid] | – | – | – | – | – | – | 177 to 179 °C |
| O=C(/C=C/c1cccc(Cl)c1)c1ccc(-n2cc(CN3CCN(c4cc5c(cc4F)c(=O)c(C(=O)O)cn5C4CC4)CC3)nn2)cc1 [Compound 4b, (E)-7-(4-((1–(4-(3-(3-chlorophenyl)acryloyl)phenyl)-1H-1,2,3-triazol-4-yl)methyl)piperazin-1-yl)-1-cyclopropyl-6-fluoro-4-oxo-1,4-dihydroquinoline-3-carboxylic acid] | induced γH2AX foci formation | induced G2/M phase cell cycle arrest in a concentration-dependent manner | – | increases in the γH2AX protein expression | – | significant tubulin polymerisation inhibition | – |
| O=C(/C=C/c1ccc(Cl)cc1)c1ccc(-n2cc(CN3CCN(c4cc5c(cc4F)c(=O)c(C(=O)O)cn5C4CC4)CC3)nn2)cc1 [Compound 4c, (E)-7-(4-((1-(4-(3-(4-chlorophenyl)acryloyl)phenyl)-1H-1,2,3-triazol-4-yl)methyl)piperazin-1-yl)-1-cyclopropyl-6-fluoro-4-oxo-1,4-dihydroquinoline-3-carboxylic acid] | – | – | – | – | – | – | 257 to 259 °C |
| COc1cc(/C=C/C(=O)c2ccc(-n3cc(CN4CCN(c5cc6c(cc5F)c(=O)c(C(=O)O)cn6C5CC5)CC4)nn3)cc2)cc(OC)c1OC [Compound 4j, (E)-1-cyclopropyl-6-fluoro-4-oxo-7–(4-((1–(4-(3-(3,4,5-trimethoxyphenyl)acryloyl)phenyl)-1H-1,2,3-triazol-4-yl)methyl)piperazin-1-yl)-1,4-dihydroquinoline-3-carboxylic acid] | induced γH2AX foci formation | induced G2/M phase cell cycle arrest in a concentration-dependent manner | less potent Top-1 inhibitor | increases in the γH2AX protein expression | stronger inhibitory activity than 4b, 4i, and ETO | significant tubulin polymerisation inhibition | – |
